# From patent US20250129086A1, “COMPOUND FOR DEGRADING EGFR PROTEIN AND USE THEREOF” (TYK MEDICINES, INC., priority 2021, published 2025)
# Legend:
# Format in all cases: cell-based, human
# [1] = test system: H1975 (EGFR L858R/T790M double mutation); test: Cell antiproliferative assay (CTG, 72 h), H1975; conditions: Homo sapiens, NCI-H1975, 72 h, Table 2, H1975 cells
# Description: (§1) Test Example 1 Cell Antiproliferative Assay
# (§2) H1975: with EGFR: L858R/T790M double mutation; PC-9 with EGFR exon 19 deletion, HCC827 with exon 19 deletion mutation. CellCounting-Lite2.0, Trypsin EDTA, 37° C. CO2 incubator, cell counter, EnVision Serial No.1050454. II. Experimental preparation:
# (§3) • (A) Trypsin EDTA was used to digest log-phase cells, medium was added to terminate the reaction, and a cell suspension was made by blowing and mixing with a pipette. • (B) Cell concentration was determined using Vi-cell, and a suspension of 15,000-25,000 cells per milliliter was made depending on the purpose of the experiment and the characteristics of the cells. • (C) After the cell suspension was prepared, it was gently mixed and 100 microliters per well was added so that the density of cells to be tested was 1500-2500 per well.
# (§4) • (A) About 2 mg of compound was weighed, and the volume of DMSO required was calculated according to the formula: compound mass (mg)*compound purity (%)/compound molecular weight*1000 • (B) The inoculated cell culture plates were incubated in an incubator and the compounds with concentration gradient were added after about 24 hours. • (C)10 Mm of compound stock solution was diluted to […] with medium, and 50 Mm of compound solution was added sequentially to the second column of the deep-well plate, and […] of medium containing 0.5% DMSO was added to the third to eleventh columns. • (D) Gradient dilution: 125 μl of solution was pipetted from the second column and added to the third column, after mixing; another 125 μl of solution was pipetted from the third column and added to the fourth column, and the operation was repeated until the tenth column. • (E)25 μl of compound was pipetted from the deep-well plate into a 96-well culture plate using a multichannel pipette, and each compound was repeated three times on the 96-well plate. A maximum concentration of 10,000 nm with concentration gradient of 1:4 was eventually formed on the 96-well plate.
# (§5) • (A)96-well plates were incubated in an incubator for 72 h. The effect of the compounds was observed under an inverted microscope. • (B)25 μl of CTG solution was added to each well, the plate was put on shaker for 10 minutes and the […] of each well was read.
# (§6) The cell viability rate (% Cell Viability) was calculated using the following formula: • % Cell Viability=100%×(Lum_Sample-Lum_LC)/(Lum_HC-Lum_LC) • Lum_HC: Cell reading of 0.1% DMSO control • Lum_Sample: Cell reading with compound added • Lum_LC: Reading of Blank media • IC50 values were obtained by curve fitting with GraphPad Prism 8 software.
# [2] = test system: PC-9 (EGFR exon 19 deletion); test: Cell antiproliferative assay (CTG, 72 h), PC-9; conditions: Homo sapiens, PC-9, 72 h, Table 2, PC-9 cells
# Description: as §1, §2, §3, §4, §5, §6
# [3] = test system: HCC827 (exon 19 deletion mutation); test: Cell antiproliferative assay (CTG, 72 h), HCC827; conditions: Homo sapiens, HCC827, 72 h, Table 2, HCC827 cells
# Description: as §1, §2, §3, §4, §5, §6
SMILES,IC50 [1] [nM],IC50 [2] [nM],IC50 [3] [nM]
COc1cc(N2C[C@H]3CN(C(=O)CN4CCN(c5ccc(NC6CCC(=O)NC6=O)cc5)CC4)C[C@H]3C2)ccc1Nc1ncc(Cl)c(Nc2ccccc2C(C)=O)n1 (stereo partly drawn) [Compound T-189],10 to 100,100 to 1000,100 to 1000
COc1cc(N2CCN(C(=O)CN3CCC(c4ccccc4NC4CCC(=O)NC4=O)CC3)CC2)ccc1Nc1ncc(Cl)c(Nc2ccccc2C(C)=O)n1 (stereo not drawn) [Compound T-193],100 to 1000,100 to 1000,100 to 1000
COc1cc(N2CCN(C(=O)CN3CCC(c4ccc(NC5CCC(=O)NC5=O)cc4)CC3)CC2)ccc1Nc1ncc(Cl)c(Nc2ccccc2NC(C)=O)n1 (stereo not drawn) [Compound T-195],10 to 100,100 to 1000,100 to 1000
COc1cc(N2CCN(C(=O)CN3CCC(c4ccc(NC5CCC(=O)NC5=O)cc4)CC3)CC2)ccc1Nc1ncc(Cl)c(Nc2ccccc2C(C)(C)O)n1 (stereo not drawn) [Compound T-196],10 to 100,100 to 1000,100 to 1000
COc1cc(N2CCN(C(=O)CN3CCC(c4ccc(NC5CCC(=O)NC5=O)cc4)CC3)CC2)ccc1Nc1ncc(Cl)c(Nc2ccc(F)cc2C(C)(C)O)n1 (stereo not drawn) [Compound T-199],10 to 100,100 to 1000,100 to 1000
COc1cc(N2CCN(C(=O)CN3CCC(c4ccc(NC5CCC(=O)NC5=O)cc4)CC3)CC2)ccc1Nc1ncc(Cl)c(Nc2ccccc2OC)n1 (stereo not drawn) [Compound T-200],10 to 100,100 to 1000,100 to 1000
COc1cc(N2CCN(CCC3CCN(c4ccc5c(c4)C(=O)N(C4CCC(=O)NC4=O)C5=O)CC3)CC2)ccc1Nc1ncc(Cl)c(Nc2ccccc2C(C)=O)n1 (stereo not drawn) [Compound T-212],100 to 1000,≥ 1000,100 to 1000
COc1cc(OC2CCN(C(=O)CN3CCC(c4ccc(NC5CCC(=O)NC5=O)cc4)CC3)CC2)ccc1Nc1ncc(Cl)c(Nc2ccccc2C(C)=O)n1 (stereo not drawn) [Compound T-214],100 to 1000,≥ 1000,100 to 1000
COc1cc(N2CCN(C(=O)CN3CCC(c4ccc(NC5CCC(=O)NC5=O)cc4)CC3)CC2)ccc1Nc1ncc(Cl)c(Nc2ccccc2NS(C)(=O)=O)n1 (stereo not drawn) [Compound T-218],10 to 100,100 to 1000,10 to 100
COc1cc(N2CCC(CN3CCN(c4ccc5c(c4)C(=O)N(C4CCC(=O)NC4=O)C5=O)CC3)CC2)ccc1Nc1ncc(Cl)c(Nc2ccccc2C(C)=O)n1 (stereo not drawn) [Compound T-225],100 to 1000,≥ 1000,≥ 1000
COc1cc(N2CCN(CC3CCN(c4ccc5c(c4)C(=O)N(C4CCC(=O)NC4=O)C5=O)CC3)CC2)ccc1Nc1ncc(Cl)c(Nc2ccccc2C(C)=O)n1 (stereo not drawn) [Compound T-226],100 to 1000,≥ 1000,100 to 1000
COc1cc(N2CCN(C(=O)CC3CCN(c4ccc5c(c4)C(=O)N(C4CCC(=O)NC4=O)C5=O)CC3)CC2)ccc1Nc1ncc(Cl)c(Nc2ccccc2C(C)=O)n1 (stereo not drawn) [Compound T-231],100 to 1000,≥ 1000,10 to 100
C=CC(=O)Nc1cc(Nc2nccc(-c3cn(C)c4ccccc34)n2)c(OC)cc1N(C)CCN(C)CC(=O)N1CCC(c2ccc(NC3CCC(=O)NC3=O)cc2)CC1 (stereo not drawn) [Compound T-237],≥ 1000,100 to 1000,100 to 1000
COc1cc(N2CCN(c3ncc(Cl)c(Nc4ccccc4C(C)=O)n3)CC2)ncc1NC(=O)CN1CCC(c2ccc(NC3CCC(=O)NC3=O)cc2)CC1 (stereo not drawn) [Compound T-239],≥ 1000,≥ 1000,100 to 1000
COc1cc(N2CCN(C(=O)CN3CCC(c4ccc(NC5CCC(=O)NC5=O)cc4)CC3)CC2)c(C)cc1Nc1ncc(Cl)c(Nc2ccccc2C(=O)N(C)C)n1 (stereo not drawn) [Compound T-241],≤ 10,100 to 1000,100 to 1000
COc1cc(N2CCN(C(=O)CN3CCC(c4ccc(NC5CCC(=O)NC5=O)cc4)C3)CC2)ccc1Nc1ncc(Cl)c(Nc2ccccc2C(C)=O)n1 (stereo not drawn) [Compound T-242],100 to 1000,100 to 1000,100 to 1000
COc1cc(N2CCN(C(=O)CN3CCC(c4ccc(NC5CCC(=O)NC5=O)cc4)CC3)CC2)ccc1Nc1ncc(Cl)c(Nc2ccc(Cl)cc2C(C)(C)O)n1 (stereo not drawn) [Compound T-243],≤ 10,10 to 100,10 to 100

SMILES,IC50 [1] [nM],IC50 [2] [nM],IC50 [3] [nM]
COc1cc(N2CCN(C(=O)CN3CCC(c4ccc(NC5CCC(=O)NC5=O)cc4)CC3)CC2)ncc1Nc1ncc(Cl)c(Nc2ccccc2C(C)=O)n1 (stereo not drawn) [Compound T-244],10 to 100,10 to 100,10 to 100
COc1ccc(Nc2nc(Nc3ccc(N4CCN(C(=O)CN5CCC(c6ccc(NC7CCC(=O)NC7=O)cc6)CC5)CC4)cc3OC)ncc2Cl)c(C(C)=O)c1 (stereo not drawn) [Compound T-249],≤ 10,10 to 100,10 to 100
CNC(=O)c1ccccc1Nc1nc(Nc2cc(C)c(N3CCN(C(=O)CN4CCC(c5ccc(NC6CCC(=O)NC6=O)cc5)CC4)CC3)cc2OC)ncc1Br (stereo not drawn) [Compound T-255],≤ 10,10 to 100,10 to 100
COc1cc(N2CCN(C(=O)CN3CCC(c4ccc(NC5CCC(=O)NC5=O)cc4)CC3)CC2)ccc1Nc1ncc(Cl)c(Nc2ccccc2C(=O)NC(C)C)n1 (stereo not drawn) [Compound T-259],10 to 100,100 to 1000,100 to 1000
COc1cc(N2CCN(C(=O)CN3CCC(c4ccc(NC5CCC(=O)NC5=O)cc4)CC3)CC2)ccc1Nc1ncc(C(F)(F)F)c(Nc2ccccc2C(=O)Nc2ccccc2)n1 (stereo not drawn) [Compound T-267],100 to 1000,100 to 1000,100 to 1000
COc1cc(N2CCN(C(=O)CN3CCC(c4ccc(NC5CCC(=O)NC5=O)cc4)CC3)CC2)ccc1Nc1ncc(Cl)c(Nc2cccc3c2C(=O)N(C)C3)n1 (stereo not drawn) [Compound T-268],10 to 100,10 to 100,10 to 100
COc1cc(N2CCN(C(=O)CN3CCC(c4ccc(NC5CCC(=O)NC5=O)cc4)CC3)CC2)ccc1Nc1ncc(Br)c(Nc2cccc3c2C(=O)NC3)n1 (stereo not drawn) [Compound T-272],≤ 10,10 to 100,10 to 100
COc1cc(N2CCN(C(=O)CN3CCC(c4ccc(NC5CCC(=O)NC5=O)cc4)CC3)CC2)c(C#N)cc1Nc1ncc(Cl)c(Nc2ccccc2C(C)=O)n1 (stereo not drawn) [Compound T-282],10 to 100,10 to 100,10 to 100
CNC(=O)c1ccccc1Nc1nc(Nc2cc(C#N)c(N3CCN(C(=O)CN4CCC(c5ccc(NC6CCC(=O)NC6=O)cc5)CC4)CC3)cc2OC)ncc1Cl (stereo not drawn) [Compound T-283],≤ 10,10 to 100,10 to 100
COc1cc(N2CCN(C(=O)CN3CCC(c4ccc(NC5CCC(=O)NC5=O)cc4)CC3)CC2)c(C#N)cc1Nc1ncc(Br)c(Nc2ccccc2C(C)=O)n1 (stereo not drawn) [Compound T-286],10 to 100,10 to 100,10 to 100
COc1cc(N2CCN(C(=O)CN3CCC(c4ccc(NC5CCC(=O)NC5=O)cc4)CC3)CC2)c(C(F)(F)F)cc1Nc1ncc(Br)c(Nc2ccccc2C(C)=O)n1 (stereo not drawn) [Compound T-289],10 to 100,10 to 100,10 to 100
CNC(=O)c1ccccc1Nc1nc(Nc2cc(C(F)(F)F)c(N3CCN(C(=O)CN4CCC(c5ccc(NC6CCC(=O)NC6=O)cc5)CC4)CC3)cc2OC)ncc1Br (stereo not drawn) [Compound T-292],≤ 10,10 to 100,10 to 100
CNC(=O)c1ccccc1Nc1nc(Nc2ccc(N3CCN(C(=O)CN4CCC(c5ccc(NC6CCC(=O)NC6=O)cc5F)CC4)CC3)cc2OC)ncc1Br (stereo not drawn) [Compound T-295],≤ 10,10 to 100,10 to 100
CNC(=O)c1ccccc1Nc1nc(Nc2ccc(N3CCN(C(=O)CC4(F)CCN(c5ccc(NC6CCC(=O)NC6=O)cc5)CC4)CC3)cc2OC)ncc1Cl (stereo not drawn) [Compound T-300],10 to 100,10 to 100,10 to 100
COc1cc(N2CCN(C(=O)CC3(F)CCN(c4ccc(NC5CCC(=O)NC5=O)cc4)CC3)CC2)ccc1Nc1ncc(Cl)c(Nc2ccccc2C(C)=O)n1 (stereo not drawn) [Compound T-303],10 to 100,10 to 100,10 to 100
CNC(=O)c1ccccc1Nc1nc(Nc2ccc(N3CCN(C(=O)CN4CCC(c5ccc(NC6CCC(=O)NC6=O)cc5)C(F)(F)C4)CC3)cc2OC)ncc1Br (stereo not drawn) [Compound T-313],≤ 10,10 to 100,10 to 100
